Calls of active or inactive are those of the source. The calls are words filed in the database; no cut-off is given here.
How the values were obtained:
[1] = test system: PANC-1; assay: Antiproliferative activity against human PANC-1 cells assessed as inhibition of cell growth incubated for 48 hrs by MTT assay; assay type: functional, cell-based; details: PANC-1, 48 h
[2] = test system: MCF7; assay: Antiproliferative activity against human MCF7 cells assessed as inhibition of cell growth incubated for 48 hrs by MTT assay; assay type: functional, cell-based; details: MCF7, 48 h
[3] = test system: MCF-10A; assay: Antiproliferative activity against human MCF-10A cells assessed as inhibition of cell growth at 50 uM incubated for 48 hrs by MTT assay relative to control; assay type: functional
[4] = target: Histone acetyltransferase p300 (Homo sapiens, UniProt Q09472); assay: Inhibition of p300 HAT (unknown origin) using 3H-acetyl-CoA as substrate assessed as H3 peptide acetylation preincubated with compound for 15 mins followed by substrate addition and measured after 30 mins by microbeta scintillation counter analysis
[5] = test system: LNCaP; assay: Antiproliferative activity against human LNCaP cells assessed as inhibition of cell growth incubated for 48 hrs by MTT assay; assay type: functional, cell-based
[6] = test system: MCF-10A; assay: Antiproliferative activity against human MCF-10A cells assessed as inhibition of cell growth incubated for 48 hrs by MTT assay; assay type: functional, cell-based
[7] = test system: MCF7; assay: Induction of apoptosis in human MCF7 cells assessed as upregulation of cleaved PARP level at 40 uM incubated for 24 hrs in presence of doxorubicin by Western blot analysis; assay type: functional, cell-based
[8] = test system: MCF7; assay: Synergistic antiproliferative activity against human MCF7 cells assessed as combination index at 40 uM incubated for 48 hrs in presence of 3 microg/ml doxorubicin by Chou-Talalay method; assay type: functional
[9] = test system: MCF7; assay: Synergistic antiproliferative activity against human MCF7 cells assessed as combination index at 20 uM incubated for 48 hrs in presence of 2 microg/ml doxorubicin by Chou-Talalay method; assay type: functional
[10] = test system: MCF7; assay: Synergistic antiproliferative activity against human MCF7 cells assessed as combination index at 40 uM incubated for 48 hrs in presence of 2 microg/ml doxorubicin by Chou-Talalay method; assay type: functional
[11] = test system: MCF7; assay: Synergistic antiproliferative activity against human MCF7 cells assessed as combination index at 40 uM incubated for 48 hrs in presence of 2.5 microg/ml doxorubicin by Chou-Talalay method; assay type: functional
[12] = test system: MCF7; assay: Synergistic antiproliferative activity against human MCF7 cells assessed as combination index at 40 uM incubated for 48 hrs in presence of 1 microg/ml doxorubicin by Chou-Talalay method; assay type: functional
[13] = test system: MCF7; assay: Antitumor activity against human MCF7 cells xenografted in BALB/c nude mouse assessed as tumor growth inhibition at 50 mg/kg, ip measured upto 14 days in presence of doxorubicin; assay type: functional; details: MCF7, 336 h, time <= 14 day, read-out: TGI
[14] = test system: MCF7; assay: Downregulation of survivin level in human MCF7 cells at 40 uM incubated for 24 hrs in presence of doxorubicin by Western blot analysis; assay type: functional, cell-based
[15] = test system: MCF7; assay: Inhibition of cell migration in human MCF7 cells assessed as reduction in scratch measured after 24 hrs by microscopic analysis; assay type: functional
[16] = test system: MCF7; assay: Synergistic antiproliferative activity against human MCF7 cells assessed as combination index at 5 uM incubated for 48 hrs in presence of 1.5 microg/ml doxorubicin by Chou-Talalay method; assay type: functional
[17] = test system: MCF7; assay: Synergistic antiproliferative activity against human MCF7 cells assessed as combination index at 10 uM incubated for 48 hrs in presence of 3 microg/ml doxorubicin by Chou-Talalay method; assay type: functional
[18] = test system: MCF7; assay: Synergistic antiproliferative activity against human MCF7 cells assessed as combination index at 10 uM incubated for 48 hrs in presence of 2 microg/ml doxorubicin by Chou-Talalay method; assay type: functional
[19] = test system: MCF7; assay: Downregulation of H3K27 level in human MCF7 cells upto 160 uM incubated for 24 hrs in presence of doxorubicin by Western blot analysis; assay type: functional, cell-based
[20] = test system: MCF7; assay: Synergistic antiproliferative activity against human MCF7 cells assessed as combination index at 20 uM incubated for 48 hrs in presence of 3 microg/ml doxorubicin by Chou-Talalay method; assay type: functional
[21] = test system: MCF7; assay: Inhibition of cell invasion in human MCF7 cells measured after 24 hrs in presence of doxorubicin by crystal violet staining based microscopic analysis; assay type: functional
[22] = test system: MCF7; assay: Synergistic antiproliferative activity against human MCF7 cells assessed as combination index at 20 uM incubated for 48 hrs in presence of 0.5 microg/ml doxorubicin by Chou-Talalay method; assay type: functional
[23] = test system: MCF7; assay: Inhibition of cell invasion in human MCF7 cells measured after 24 hrs by crystal violet staining based microscopic analysis; assay type: functional
[24] = test system: MCF7; assay: Synergistic antiproliferative activity against human MCF7 cells assessed as combination index at 10 uM incubated for 48 hrs in presence of 2.5 microg/ml doxorubicin by Chou-Talalay method; assay type: functional
[25] = test system: MCF7; assay: Synergistic antiproliferative activity against human MCF7 cells assessed as combination index at 20 uM incubated for 48 hrs in presence of 1 microg/ml doxorubicin by Chou-Talalay method; assay type: functional
[26] = test system: MCF7; assay: Antitumor activity against human MCF7 cells xenografted in BALB/c nude mouse assessed as tumor growth inhibition at 50 mg/kg, ip measured upto 14 days; assay type: functional; details: MCF7, 336 h, time <= 14 day, read-out: TGI
[27] = test system: MCF7; assay: Synergistic antiproliferative activity against human MCF7 cells assessed as combination index at 10 uM incubated for 48 hrs in presence of 1 microg/ml doxorubicin by Chou-Talalay method; assay type: functional
[28] = test system: MCF7; assay: Synergistic antiproliferative activity against human MCF7 cells assessed as combination index at 10 uM incubated for 48 hrs in presence of 1.5 microg/ml doxorubicin by Chou-Talalay method; assay type: functional
[29] = test system: MCF7; assay: Synergistic antiproliferative activity against human MCF7 cells assessed as combination index at 20 uM incubated for 48 hrs in presence of 2.5 microg/ml doxorubicin by Chou-Talalay method; assay type: functional
[30] = test system: MCF7; assay: Synergistic antiproliferative activity against human MCF7 cells assessed as reduction in cell viability at 5 to 20 uM incubated for 48 hrs in presence of 2.5 microg/ml doxorubicin by MTT assay; assay type: functional; details: dose 5-20 µM
[31] = test system: MCF7; assay: Synergistic antiproliferative activity against human MCF7 cells assessed as combination index at 5 uM incubated for 48 hrs in presence of 2 microg/ml doxorubicin by Chou-Talalay method; assay type: functional
[32] = test system: MCF7; assay: Downregulation of H3K27 level in human MCF7 cells incubated for 24 hrs by Western blot analysis; assay type: functional, cell-based; details: dose <= 160.0 µM
[33] = test system: MCF7; assay: Synergistic antiproliferative activity against human MCF7 cells assessed as combination index at 10 uM incubated for 48 hrs in presence of 0.5 microg/ml doxorubicin by Chou-Talalay method; assay type: functional
[34] = test system: MCF7; assay: Synergistic antiproliferative activity against human MCF7 cells assessed as combination index at 5 uM incubated for 48 hrs in presence of 3 microg/ml doxorubicin by Chou-Talalay method; assay type: functional
[35] = test system: MCF7; assay: Inhibition of cell migration in human MCF7 cells assessed as measured after 24 hrs in presence of doxorubicin by microscopic analysis; assay type: functional
[36] = test system: MCF7; assay: Synergistic antiproliferative activity against human MCF7 cells assessed as reduction in cell viability at 5 to 20 uM incubated for 48 hrs in presence of 40 microg/ml doxorubicin by MTT assay; assay type: functional; details: dose 5-20 µM
[37] = test system: MCF7; assay: Synergistic antiproliferative activity against human MCF7 cells assessed as combination index at 40 uM incubated for 48 hrs in presence of 1.5 microg/ml doxorubicin by Chou-Talalay method; assay type: functional
[38] = test system: MCF7; assay: Synergistic antiproliferative activity against human MCF7 cells assessed as combination index at 40 uM incubated for 48 hrs in presence of 0.5 microg/ml doxorubicin by Chou-Talalay method; assay type: functional
[39] = test system: MCF7; assay: Downregulation of c-Myc level in human MCF7 cells at 40 uM incubated for 24 hrs in presence of doxorubicin by Western blot analysis; assay type: functional, cell-based
[40] = test system: MCF7; assay: Induction of apoptosis in human MCF7 cells assessed as upregulation of cleaved caspase 3 level at 40 uM incubated for 24 hrs in presence of doxorubicin by Western blot analysis; assay type: functional, cell-based
[41] = test system: MCF7; assay: Antiproliferative activity against human MCF7 cells assessed as inhibition of cell proliferation incubated for 48 hrs by MTT assay; assay type: functional, cell-based; details: MCF7, 48 h
[42] = test system: MCF7; assay: Synergistic antiproliferative activity against human MCF7 cells assessed as reduction in cell viability at 5 to 20 uM incubated for 48 hrs in presence of 1 microg/ml doxorubicin by MTT assay; assay type: functional; details: dose 5-20 µM
[43] = test system: MCF7; assay: Synergistic antiproliferative activity against human MCF7 cells assessed as combination index at 5 uM incubated for 48 hrs in presence of 2.5 microg/ml doxorubicin by Chou-Talalay method; assay type: functional
[44] = test system: MCF7; assay: Synergistic antiproliferative activity against human MCF7 cells assessed as combination index at 20 uM incubated for 48 hrs in presence of 1.5 microg/ml doxorubicin by Chou-Talalay method; assay type: functional
[45] = Toxicity in BALB/c nude mouse xenografted with human MCF7 cells assessed as loss of body weight at 50 mg/kg, ip measured upto 14 days; assay type: organism-based; details: in vivo, 336 h, time < 14 day
[46] = test system: MCF7; assay: Synergistic antiproliferative activity against human MCF7 cells assessed as combination index at 5 uM incubated for 48 hrs in presence of 1 microg/ml doxorubicin by Chou-Talalay method; assay type: functional
[47] = test system: MCF7; assay: Synergistic antiproliferative activity against human MCF7 cells assessed as combination index at 5 uM incubated for 48 hrs in presence of 0.5 microg/ml doxorubicin by Chou-Talalay method; assay type: functional

Histone acetyltransferase p300, sequence (Q09472 whole entry): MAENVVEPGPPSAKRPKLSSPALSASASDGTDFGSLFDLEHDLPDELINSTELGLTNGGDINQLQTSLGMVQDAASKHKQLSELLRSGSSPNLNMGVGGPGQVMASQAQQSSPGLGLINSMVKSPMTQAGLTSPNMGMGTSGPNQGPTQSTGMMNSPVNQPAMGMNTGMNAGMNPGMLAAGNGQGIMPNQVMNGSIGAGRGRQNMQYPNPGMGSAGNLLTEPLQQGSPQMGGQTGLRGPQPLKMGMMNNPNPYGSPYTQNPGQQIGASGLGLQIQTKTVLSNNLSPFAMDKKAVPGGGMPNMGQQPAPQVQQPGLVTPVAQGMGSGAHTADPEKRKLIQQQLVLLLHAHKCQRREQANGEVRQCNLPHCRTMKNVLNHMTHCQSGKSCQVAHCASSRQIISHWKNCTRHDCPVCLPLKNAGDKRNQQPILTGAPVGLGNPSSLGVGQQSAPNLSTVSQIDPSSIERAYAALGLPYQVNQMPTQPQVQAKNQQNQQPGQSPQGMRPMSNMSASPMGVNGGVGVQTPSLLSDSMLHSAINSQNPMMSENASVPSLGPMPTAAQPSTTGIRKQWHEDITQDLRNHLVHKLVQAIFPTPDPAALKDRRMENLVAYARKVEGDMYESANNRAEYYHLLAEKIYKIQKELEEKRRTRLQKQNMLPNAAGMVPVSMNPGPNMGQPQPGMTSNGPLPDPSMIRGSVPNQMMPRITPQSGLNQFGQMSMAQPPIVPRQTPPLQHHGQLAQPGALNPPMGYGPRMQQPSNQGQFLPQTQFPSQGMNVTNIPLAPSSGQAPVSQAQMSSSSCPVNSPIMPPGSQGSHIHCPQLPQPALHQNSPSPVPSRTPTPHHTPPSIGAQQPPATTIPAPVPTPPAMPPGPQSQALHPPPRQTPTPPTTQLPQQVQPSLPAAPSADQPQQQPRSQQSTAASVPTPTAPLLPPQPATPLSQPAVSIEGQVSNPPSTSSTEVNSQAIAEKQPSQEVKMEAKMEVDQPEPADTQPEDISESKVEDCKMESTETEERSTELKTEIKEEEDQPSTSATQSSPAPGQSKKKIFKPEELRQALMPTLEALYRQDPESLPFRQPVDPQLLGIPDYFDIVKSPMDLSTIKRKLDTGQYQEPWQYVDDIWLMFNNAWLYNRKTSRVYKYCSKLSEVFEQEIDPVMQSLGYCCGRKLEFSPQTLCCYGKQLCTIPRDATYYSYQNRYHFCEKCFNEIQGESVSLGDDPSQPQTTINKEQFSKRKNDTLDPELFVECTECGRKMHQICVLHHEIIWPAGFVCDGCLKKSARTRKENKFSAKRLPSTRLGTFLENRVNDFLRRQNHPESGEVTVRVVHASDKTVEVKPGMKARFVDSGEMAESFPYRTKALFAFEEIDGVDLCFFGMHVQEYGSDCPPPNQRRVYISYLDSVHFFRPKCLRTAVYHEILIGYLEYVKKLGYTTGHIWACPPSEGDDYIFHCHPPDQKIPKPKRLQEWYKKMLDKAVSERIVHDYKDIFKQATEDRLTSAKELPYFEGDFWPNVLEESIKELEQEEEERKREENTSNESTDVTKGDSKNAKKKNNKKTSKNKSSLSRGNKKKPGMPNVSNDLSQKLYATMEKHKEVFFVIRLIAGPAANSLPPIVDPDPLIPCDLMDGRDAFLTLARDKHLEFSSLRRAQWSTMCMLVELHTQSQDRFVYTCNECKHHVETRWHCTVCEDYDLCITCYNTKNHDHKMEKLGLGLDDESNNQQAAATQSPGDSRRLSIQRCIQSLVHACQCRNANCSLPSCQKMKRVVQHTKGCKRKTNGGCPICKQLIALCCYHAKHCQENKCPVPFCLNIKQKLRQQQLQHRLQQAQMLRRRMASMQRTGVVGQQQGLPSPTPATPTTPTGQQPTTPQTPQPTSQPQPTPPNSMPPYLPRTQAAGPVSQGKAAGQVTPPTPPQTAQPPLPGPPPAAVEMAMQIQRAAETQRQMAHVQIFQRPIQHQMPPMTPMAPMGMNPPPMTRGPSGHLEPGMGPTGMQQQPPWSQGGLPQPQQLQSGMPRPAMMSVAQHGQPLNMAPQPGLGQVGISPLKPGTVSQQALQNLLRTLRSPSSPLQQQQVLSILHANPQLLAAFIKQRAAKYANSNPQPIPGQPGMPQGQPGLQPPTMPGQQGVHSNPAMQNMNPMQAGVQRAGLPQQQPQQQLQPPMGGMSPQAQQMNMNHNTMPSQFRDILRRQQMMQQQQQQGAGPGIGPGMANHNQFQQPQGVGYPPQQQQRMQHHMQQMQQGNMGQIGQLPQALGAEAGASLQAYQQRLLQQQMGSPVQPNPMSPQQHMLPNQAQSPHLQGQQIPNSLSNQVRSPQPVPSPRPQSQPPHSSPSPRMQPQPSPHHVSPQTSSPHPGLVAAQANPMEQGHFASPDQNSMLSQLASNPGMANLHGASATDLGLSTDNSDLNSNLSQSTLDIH

COc1cc2cc3[n+](cc2cc1OC)CC(C)COc1cc2c(cc1-3)OCO2 (stereo not given)
IC50 [1]: 33.7 µM
IC50 [2]: 29.5 µM
inhibition at 50 µM [3]: 77%
IC50 [4]: 4.78 µM
IC50 [5]: 40.7 µM
IC50 [6]: > 50 µM

COc1cc2cc3[n+](cc2cc1OC)CCOc1cc2c(cc1-3)OCO2.[Cl-]
Activity [7]: Active
IC50 [1]: > 50 µM
CI [8]: 0.55
CI [9]: 2.65
CI [10]: 0.66
CI [11]: 0.6
CI [12]: 0.59
IC50 [2]: 17.3 µM
inhibition in vivo at 50 mg/kg [13]: 83.9%
Activity [14]: Active
inhibition (INH) [15]: 52.05%
CI [16]: 94.38
CI [17]: 13.65
CI [18]: 80.19
Activity [19]: Active
CI [20]: 1.86
inhibition [21]: Active
CI [22]: 3.11
inhibition [23]: Active
CI [24]: 12.07
CI [25]: 3.44
inhibition in vivo at 50 mg/kg [26]: 59.9%
CI [27]: 37.99
IC50 [4]: 1.51 µM
CI [28]: 38.44
IC50 [5]: 43.7 µM
CI [29]: 2.28
Activity [30]: 27%
CI [31]: 113.55
Activity [32]: Dose-Dependent Effect
CI [33]: 88.25
CI [34]: 39.24
inhibition (INH) [35]: 34.22%
Activity [36]: 36%
CI [37]: 0.57
CI [38]: 1.85
Activity [39]: Active
Activity [40]: Active
IC50 [41]: 17.3 µM
Activity [42]: 36%
CI [43]: 57.34
CI [44]: 3.59
Activity [45]: Non-Toxic
CI [46]: 165.98
IC50 [6]: > 50 µM
CI [47]: 517.04

COc1ccc2cc3[n+](cc2c1OC)CCc1ccsc1-3
IC50 [4]: > 20 µM

COc1cc2cc3[n+](cc2cc1OC)CCCOc1cc2c(cc1-3)OCO2
IC50 [1]: 38.6 µM
IC50 [2]: 37.8 µM
IC50 [4]: 3.69 µM
IC50 [5]: 33.5 µM
IC50 [6]: > 50 µM

COc1ccc2cc3[n+](cc2c1OC)CCOc1cc2c(cc1-3)OCO2
IC50 [4]: 8.01 µM

COc1cc2cc3[n+](cc2cc1OC)CCCCOc1cc2c(cc1-3)OCO2
IC50 [4]: > 20 µM

— ChEMBL document CHEMBL5505963, “Novel berberine derivatives as p300 histone acetyltransferase inhibitors in combination treatment for breast cancer” (Eur J Med Chem, 2024)
